Data set [1] can be described thus: Inhibition of rat brain cortical membrane GABA alpha receptor by TBPS binding assay. The data set is classed as cell membranes, Cortex.
Data set [2] in a line: Cmax in human at 30 mg administered as formulated fasted capsules. Set-up: dose 30 mg. The conditions noted are these: in vivo, po. It is filed as ADME.
Data set [3] is described as follows: AUC (0 to infinity) in human at 30 mg administered as formulated fed (high-fat meal) capsules. It is filed as ADME. The arrangement: dose 30 mg. The conditions noted are these: in vivo, po.
Data set [4] is described as follows: AUC (0 to infinity) in human at 30 mg administered as formulated fasted capsules. The data set is classed as ADME. The arrangement: dose 30 mg. The following applies: in vivo, po.
The nature of data set [5]: AUC (0 to t) in human at 30 mg administered as formulated fasted capsules. The data set is classed as ADME. Set-up: dose 30 mg. The conditions noted are these: in vivo, po.
Data set [6] can be described thus: AUC (0 to t) in human at 30 mg administered as formulated fed (high-fat meal) capsules. It is filed as ADME. The conditions noted are these: in vivo, po. Set-up: dose 30 mg.
Data set [7] can be described thus: Cmax in human at 30 mg administered as formulated fed (high-fat meal) capsules. Set-up: dose 30 mg. The data set is classed as ADME. The conditions noted are these: in vivo, po.

As a reminder, the IC50 is the midpoint of a concentration-inhibition curve. Usually Cmax stands for the highest concentration seen after dosing. One may read the AUC(0-inf) as the area under the concentration-time curve extrapolated to infinity. The low end stands for less exposure, the high end for more exposure. For orientation: AUC(0-t) means exposure summed from dosing to a finite time, without extrapolation to infinity. A low value points to low exposure.

Structures are written as SMILES.

Regarding `C[C@@]1(O)CC[C@H]2[C@H](CC[C@@H]3[C@@H]2CC[C@]2(C)[C@@H](C(=O)CO)CC[C@@H]32)C1`, the IC50 in data set [1] turned out to be 86 nM. For the same compound, the figures for the Cmax in data set [2] and in data set [7] were 21.8 ng/mL and 63.1 ng/mL, respectively. Moreover, the values for the AUC(0-inf) in data set [3] and in data set [4] were 1010 ng·h/mL and 640 ng·h/mL, respectively. Also, the AUC(0-t) in data set [5] stood at 530 ng·h/mL; in data set [6], 838 ng·h/mL.
As for `COC[C@@]1(O)CC[C@H]2[C@@H](CC[C@@H]3[C@@H]2CC[C@]2(C)[C@@H](C(=O)CO)CC[C@@H]32)C1`, the IC50 in data set [1] came out at 94 nM.
The same measure, in the same setting: as for `CC(=O)[C@H]1CC[C@H]2[C@@H]3CC[C@H]4C[C@](C)(O)CC[C@@H]4[C@H]3CC[C@]12C`, the figure is 93 nM; as for `COC[C@@]1(O)CC[C@H]2[C@H](CC[C@@H]3[C@@H]2CC[C@]2(C)[C@@H](C(=O)CO)CC[C@@H]32)C1`, 170 nM.
`COC[C@@]1(O)CC[C@H]2[C@H](CC[C@@H]3[C@@H]2CC[C@]2(C)[C@@H](C(C)=O)CC[C@@H]32)C1` showed an IC50 in data set [1] of 41 nM.
On the same count and under the same terms, the figure for `CC(=O)[C@H]1CC[C@H]2[C@@H]3CC[C@@H]4C[C@@](O)(C(F)F)CC[C@@H]4[C@H]3CC[C@]12C` is 33 nM.
